Data from patent publication US7402698B2, “Secondary amino-and cycloamino-cycloalkanol derivatives and methods of their use” (Wyeth, priority 2003, dated 2008).
Where a name gives a salt, the structure may show the parent alone.

Biological target: T1, human hNET (Homo sapiens, UniProt P23975)
T1 construct: expressed in transfected cells; host or cells: MDCK-Net6 (MDCK cells stably transfected with hNET)
Assay: Norepinephrine (NE) uptake assay in MDCK-Net6 cells
Type: cell-based
Settings: 1 μM test compound, [3H]NE uptake
Experimental: MDCK-Net6 cells, stably transfected with human hNET (Pacholczyk, T., R. D. Blakely, and S. G. Amara, Nature, 1991, 350(6316): p. 350-4) were cultured in growth medium containing high glucose DMEM (Gibco, Cat. No. 11995), 10% FBS (dialyzed, heat-inactivated, US Bio-Technologies, Lot FBD1129HI) and 500 μg/ml G418 (Gibco, Cat. No. 10131). Cells were plated at 300,000/T75 flask and cells were split twice weekly. The JAR cell line (human placental choriocarcinoma) was purchased from ATCC (Cat. No. HTB-144). The cells were cultured in growth medium containing RPMI 1640 (Gibco, Cat. No. 72400), 10% FBS (Irvine, Cat. No. 3000), 1% sodium pyruvate (Gibco, Cat. No. 1136) and 0.25% glucose. Cells were plated at 250,000 cells/T75 flask and split twice weekly. For all assays, cells were plated in Wallac 96-well sterile plates (PerkinEimer, Cat. No. 3983498).
On day 1, cells were plated at 3,000 cells/well in growth medium and maintained in a cell incubator (37° C., 5% CO2). On day 2, growth medium was replaced with 200 μl of assay buffer (25 mM HEPES; 120 mM NaCl; 5 mM KCl; 2.5 mM CaCl2; 1.2 mM MgSO4; 2 mg/ml glucose (pH 7.4, 37° C.)) containing 0.2 mg/ml ascorbic acid and 10 μM pargyline. Plates containing cells with 200 μl of assay buffer were equilibrated for 10 minutes at 37° C. prior to addition of compounds. A stock solution of desipramine was prepared in DMSO (10 mM) and delivered to triplicate wells containing cells for a final test concentration of 1 μM. Data from these wells were used to define non-specific NE uptake (minimum NE uptake). Test compounds were prepared in DMSO (10 mM) and diluted in assay buffer according to test range (1 to 10,000 nM). Twenty-five microliters of assay buffer (maximum NE uptake) or test compound were added directly to triplicate wells containing cells in 200 μl of assay buffer. The cells in assay buffer with test compounds were incubated for 20 minutes at 37° C. To initiate the NE uptake, [^3H]NE diluted in assay buffer (120 nM final assay concentration) was delivered in 25 μl aliquots to each well and the plates were incubated for 5 minutes (37° C.). The reaction was terminated by decanting the supernatant from the plate. The plates containing cells were washed twice with 200 μl assay buffer (37° C.) to remove free radioligand. The plates were then inverted, left to dry for 2 minutes, then reinverted and air-dried for an additional 10 minutes. The cells were lysed in 25 μl of 0.25 N NaOH solution (4° C.), placed on a shake table and vigorously shaken for 5 minutes. After cell lysis, 75 μl of scintillation cocktail was added to each well and the plates were sealed with film tape. The plates were returned to the shake table and vigorously shaken for a minimum of 10 minutes to ensure adequate partitioning of organic and aqueous solutions. The plates were counted in a Wallac Microbeta counter (PerkinEimer) to collect the raw cpm data.
For each experiment, a data stream of cpm values collected from the Wallac Microbeta counter was downloaded to a Microsoft Excel statistical application program. Calculations of EC50 values were made using the transformed-both-sides logistic dose responses program written by Wyeth Biometrics Department. The statistical program uses mean cpm values from wells representing maximum binding or uptake (assay buffer) and mean cpm values from wells representing minimum binding or uptake ((1 μM desipramine (hNET) or 1 μM paroxetine (hSERT)). Estimation of the EC50 value was completed on a log scale and the line was fit between the maximum and minimum binding or uptake values. All graphic data representation was generated by normalizing each data point to a mean percent based on the maximum and minimum binding or uptake values. The EC50 values reported from multiple experiments were calculated by pooling the raw data from each experiment and analyzing the pooled data as one experiment.

T1 sequence (P23975 whole entry): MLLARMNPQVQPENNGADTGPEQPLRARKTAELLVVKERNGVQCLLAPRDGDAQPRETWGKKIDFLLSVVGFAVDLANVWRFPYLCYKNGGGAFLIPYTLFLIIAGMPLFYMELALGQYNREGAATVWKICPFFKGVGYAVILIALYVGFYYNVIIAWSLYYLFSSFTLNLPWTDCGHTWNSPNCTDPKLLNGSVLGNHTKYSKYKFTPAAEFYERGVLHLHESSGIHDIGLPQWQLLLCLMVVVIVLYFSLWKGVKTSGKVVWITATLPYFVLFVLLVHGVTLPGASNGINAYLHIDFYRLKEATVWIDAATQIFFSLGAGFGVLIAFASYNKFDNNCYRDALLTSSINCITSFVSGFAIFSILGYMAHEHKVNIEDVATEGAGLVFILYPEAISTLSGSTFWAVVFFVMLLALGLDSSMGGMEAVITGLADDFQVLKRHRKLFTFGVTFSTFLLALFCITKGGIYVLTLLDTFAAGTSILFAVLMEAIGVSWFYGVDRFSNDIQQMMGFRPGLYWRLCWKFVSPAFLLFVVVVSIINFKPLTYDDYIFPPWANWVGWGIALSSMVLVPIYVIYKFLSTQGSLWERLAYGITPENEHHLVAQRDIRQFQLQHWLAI

Going from `OC1(C(CNCc2ccccc2)c2ccc(Cl)c(Cl)c2)CCC1` (centres unmarked) [Example 10, 1-[2-(benzylamino)-1-(3,4-dichlorophenyl)ethyl]cyclobutanol hydrochloride] to `OC1(C(CNCc2ccccc2)c2ccc(Cl)c(Cl)c2)CCCCC1` (centres unmarked) [Example 38, 1-[2-(benzylamino)-1-(3,4-dichlorophenyl)ethyl]cyclohexanol hydrochloride], the inhibition at 1 µM falls from 92% to 56%.

Compared with `OC1(C(CNCc2ccccc2)c2cccc(Br)c2)CCCCC1` (centres unmarked) [Example 61, 1-[2-(benzylamino)-1-(3-bromophenyl)ethyl]cyclohexanol hydrochloride], `OC1(C(CNCc2ccccc2)c2cccc(Br)c2)CCC1` (centres unmarked) [Example 40, 1-[2-(benzylamino)-1-(3-bromophenyl)ethyl]cyclobutanol hydrochloride] is higher in inhibition at 1 µM: 31% for the first, 55% for the second.

First: OC1(C(CN2CCOCC2)c2ccc(Cl)c(Cl)c2)CCC1 (centres unmarked) [Example 83, 1-[1-(3,4-dichlorophenyl)-2-morpholin-4-ylethyl]cyclobutanol hydrochloride]
Second: OC1(C(CN2CCOCC2)c2cccc(Cl)c2)CCCCC1 (centres unmarked) [Example 57, 1-[1-(3-chlorophenyl)-2-morpholin-4-ylethyl]cyclohexanol hydrochloride]
The inhibition at 1 µM of the first is lower: 19% for the first, 35% for the second.

First: OC1(C(CNC2CCCCC2)c2ccc(Cl)c(Cl)c2)CCCCC1 (centres unmarked) [Example 42, 1-[2-(cyclohexylamino)-1-(3,4-dichlorophenyl)ethyl]cyclohexanol hydrochloride]
Second: OC1(C(CNC2CCCCC2)c2cccc(Cl)c2)CCCCC1 (centres unmarked) [Example 67, 1-[1-(3-chlorophenyl)-2-(cyclohexylamino)ethyl]cyclohexanol hydrochloride]
The inhibition at 1 µM of the first is higher: 48% for the first, 26% for the second.

Going from `OC1(C(CNC2CCCc3ccccc32)c2cccc(Br)c2)CCCCC1` (centres unmarked) [Example 55, 1-[1-(3-bromophenyl)-2-(1,2,3,4-tetrahydronaphthalen-1-ylamino)ethyl]cyclohexanol hydrochloride] to `OC1(C(CNC2CCCCC2)c2cccc(Br)c2)CCCCC1` (centres unmarked) [Example 48, 1-[1-(3-bromophenyl)-2-(cyclohexylamino)ethyl]cyclohexanol hydrochloride], the inhibition at 1 µM rises from 38% to 40%.

First: OC1(C(CN2CCCC2)c2cccc(Cl)c2)CCCCC1 (centres unmarked) [Example 34, 1-[1-(3-chlorophenyl)-2-pyrrolidin-1-ylethyl]cyclohexanol hydrochloride]
Second: OC1(C(CN2CCCCC2)c2cccc(Cl)c2)CCCCC1 (centres unmarked) [Example 85, 1-[1-(3-chlorophenyl)-2-piperidin-1-ylethyl]cyclohexanol hydrochloride]
The inhibition at 1 µM of the first is higher: 65% for the first, 17% for the second.

Compared with `OC1(C(CNCc2ccccc2)c2ccc3ccccc3c2)CCCCC1` (centres unmarked) [Example 62, 1-[2-(benzylamino)-1-(2-naphthyl)ethyl]cyclohexanol hydrochloride], `OC1(C(CNCc2ccccc2)c2ccc3ccccc3c2)CCC1` (centres unmarked) [Example 12, 1-[2-(benzylamino)-1-(2-naphthyl)ethyl]cyclobutanol hydrochloride] is higher in inhibition at 1 µM: 30% for the first, 90% for the second.

Compared with `OC1(C(CNCc2ccc(C(F)(F)F)cc2)c2cccc(Br)c2)CCCCC1` (centres unmarked) [Example 90, 1-(1-(3-bromophenyl)-2-{[4-(trifluoromethyl)benzyl]amino}ethyl)cyclohexanol hydrochloride], `OC1(C(CNCc2ccc(F)cc2)c2cccc(C(F)(F)F)c2)CCCCC1` (centres unmarked) [Example 47, 1-{2-[(4-fluorobenzyl)amino]-1-[3-(trifluoromethyl)phenyl]ethyl}cyclohexanol hydrochloride] is higher in inhibition at 1 µM: 15% for the first, 40% for the second.

Compared with `CN1CCC(O)(C(CNCc2ccccc2)c2ccc(Cl)c(Cl)c2)CC1` (centres unmarked) [Example 15, 4-[2-(benzylamino)-1-(3,4-dichlorophenyl)ethyl]-1-methylpiperidin-4-ol dihydrochloride], `CN1CCC(O)(C(CNCc2ccccc2)c2cccc(Br)c2)CC1` (centres unmarked) [Example 44, 4-[2-(benzylamino)-1-(3-bromophenyl)ethyl]-1-methylpiperidin-4-ol dihydrochloride] is lower in inhibition at 1 µM: 89% for the first, 44% for the second.

Compared with `OC1(C(CN2CCNCC2)c2cccc(Cl)c2)CCCCC1` (centres unmarked) [Example 1, 1-[1-(3-chlorophenyl)-2-piperazin-1-ylethyl]cyclohexanol dihydrochloride], `OC1(C(CNCc2ccccc2)c2cccc(Cl)c2)CCCCC1` (centres unmarked) [Example 41, 1-[2-(benzylamino)-1-(3-chlorophenyl)ethyl]cyclohexanol hydrochloride] is lower in inhibition at 1 µM: 93% for the first, 51% for the second.

Compared with `OC1(C(CNCc2cccc(Cl)c2)c2cccc(Br)c2)CCCCC1` (centres unmarked) [Example 60, 1-{1-(3-bromophenyl)-2-[(3-chlorobenzyl)amino]ethyl}cyclohexanol hydrochloride], `OC1(C(CNCc2cccc(Cl)c2)c2ccc3ccccc3c2)CCCCC1` (centres unmarked) [Example 33, 1-[2-[(3-chlorobenzyl)amino]-1-(2-naphthyl)ethyl]cyclohexanol hydrochloride] is higher in inhibition at 1 µM: 33% for the first, 69% for the second.

First: OC1(C(CNCc2ccc(F)cc2)c2ccc(Cl)c(Cl)c2)CCCCC1 (centres unmarked) [Example 80, 1-{1-(3,4-dichlorophenyl)-2-[(4-fluorobenzyl)amino]ethyl}cyclohexanol hydrochloride]
Second: OC1(C(CNCc2ccc(C(F)(F)F)cc2)c2ccc(Cl)c(Cl)c2)CCCCC1 (centres unmarked) [Example 75, 1-(1-(3,4-dichlorophenyl)-2-{[4-(trifluoromethyl)benzyl]amino}ethyl)cyclohexanol hydrochloride]
The inhibition at 1 µM of the first is lower: 20% for the first, 22% for the second.

Biological target: T1, human hNET
Assay: as above
Type: cell-based
Settings: 30 μM test compound (stated in cell), [3H]NE uptake

Compared with `CN1CCC(O)(C(CN2CCOCC2)c2cccc(Br)c2)CC1` (centres unmarked) [Example 116, 4-[1-(3-bromophenyl)-2-morpholin-4-ylethyl]-1-methylpiperidin-4-ol dihydrochloride], `OC1(C(CN2CCOCC2)c2cccc(Br)c2)CCC1` (centres unmarked) [Example 95, 1-[1-(3-bromophenyl)-2-morpholin-4-ylethyl]cyclobutanol hydrochloride] is higher in inhibition at 30 µM: 6% for the first, 67% for the second.

First: OC1(C(CN2CCOCC2)c2cccc(Br)c2)CCCCC1 (centres unmarked) [Example 99, 1-[1-(3-bromophenyl)-2-morpholin-4-ylethyl]cyclohexanol hydrochloride]
Second: OC1(C(CN2CCOCC2)c2ccc(Cl)c(Cl)c2)CCCCC1 (centres unmarked) [Example 112, 1-[1-(3,4-dichlorophenyl)-2-morpholin-4-ylethyl]cyclohexanol hydrochloride]
The inhibition at 30 µM of the first is lower: 55% for the first, 80% for the second.

First: OC1(C(CNCc2ccc(C(F)(F)F)cc2)c2cccc(Cl)c2)CCCCC1 (centres unmarked) [Example 105, 1-(1-(3-chlorophenyl)-2-{[4-(trifluoromethyl)benzyl]amino}ethyl)cyclohexanol hydrochloride]
Second: OC1(C(CNCc2ccc(F)cc2)c2cccc(Br)c2)CCCCC1 (centres unmarked) [Example 98, 1-{1-(3-bromophenyl)-2-[(4-fluorobenzyl)amino]ethyl}cyclohexanol hydrochloride]
The inhibition at 30 µM of the first is higher: 99% for the first, 69% for the second.

Compared with `OC1(C(CNCc2ccc(F)cc2)c2ccc3ccccc3c2)CCCCC1` (centres unmarked) [Example 113, 1-[2-[(4-fluorobenzyl)amino]-1-(2-naphthyl)ethyl]cyclohexanol hydrochloride], `CN1CCC(O)(C(CN2CCOCC2)c2ccc(Cl)c(Cl)c2)CC1` (centres unmarked) [Example 114, 4-[1-(3,4-dichlorophenyl)-2-morpholin-4-ylethyl]-1-methylpiperidin-4-ol dihydrochloride] is lower in inhibition at 30 µM: 55% for the first, 52% for the second.
